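All cell lines were grown in 96-well plates and treated with compound for 48 hours. At the GI50, growth is halved.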 Calls of active or inactive are those of the source. Rule as the data show it: active = GI50 up to about 1.1 µM and inactive = higher.
Columns and labels:
Test in all cases: NCI-60 cell line screen, 48 h
A549 = tested on: A549
SN12C = tested on: SN12C
Hs-578T = tested on: Hs-578T
MDA-N = tested on: MDA-N
UACC-62 = tested on: UACC-62
LOX IMVI = tested on: LOX IMVI
OVCAR-5 = tested on: OVCAR-5
OVCAR-8 = tested on: OVCAR-8
RXF 393 = tested on: RXF 393
COLO 205 = tested on: COLO 205
CCRF-CEM = tested on: CCRF-CEM
M14 = tested on: M14
OVCAR-3 = tested on: OVCAR-3
786-0 = tested on: 786-0
UO-31 = tested on: UO-31
HOP-62 = tested on: HOP-62
T47D = tested on: T47D
MDA-MB-231 = tested on: MDA-MB-231
SR = tested on: SR
A498 = tested on: A498
SK-OV-3 = tested on: SK-OV-3
SK-MEL-2 = tested on: SK-MEL-2
HL-60 = tested on: HL-60
SF-268 = tested on: SF-268
IGROV-1 = tested on: IGROV-1
SNB-75 = tested on: SNB-75
OVCAR-4 = tested on: OVCAR-4
HOP-92 = tested on: HOP-92
KM12 = tested on: KM12
MOLT-4 = tested on: MOLT-4
HCC 2998 = tested on: HCC 2998
HCT-116 = tested on: HCT-116
TK-10 = tested on: TK-10
NCI/ADR-RES = tested on: NCI/ADR-RES
SF-539 = tested on: SF-539
ACHN = tested on: ACHN
UACC-257 = tested on: UACC-257
MCF7 = tested on: MCF7
NCI-H23 = tested on: NCI-H23
RPMI-8226 = tested on: RPMI-8226
K562 = tested on: K562
SK-MEL-5 = tested on: SK-MEL-5
HCT-15 = tested on: HCT-15
HT-29 = tested on: HT-29
SF-295 = tested on: SF-295
NCI-H522 = tested on: NCI-H522
BT-549 = tested on: BT-549
SW-620 = tested on: SW-620
MDA-MB-435 = tested on: MDA-MB-435
SK-MEL-28 = tested on: SK-MEL-28
EKVX = tested on: EKVX
NCI-H460 = tested on: NCI-H460
DU-145 = tested on: DU-145
U-251 = tested on: U-251
CAKI-1 = tested on: CAKI-1
PC-3 = tested on: PC-3
SNB-19 = tested on: SNB-19
NCI-H226 = tested on: NCI-H226
Malme-3M = tested on: Malme-3M

Compound: Cc1cc(S(=O)(=O)Nc2nc3ccccc3[nH]2)c(S)cc1Cl
- GI50 (A549): 45.2 µM (inactive)
- GI50 (SN12C): > 100 µM (inactive)
- GI50 (Hs-578T): 70 µM (inactive)
- GI50 (MDA-N): > 100 µM (inactive)
- GI50 (UACC-62): 79.4 µM (inactive)
- GI50 (LOX IMVI): 19.3 µM (inactive)
- GI50 (OVCAR-5): > 100 µM (inactive)
- GI50 (OVCAR-8): > 100 µM (inactive)
- GI50 (RXF 393): > 100 µM (inactive)
- GI50 (COLO 205): 82.2 µM (inactive)
- GI50 (CCRF-CEM): 26.6 µM (inactive)
- GI50 (M14): > 100 µM (inactive)
- GI50 (OVCAR-3): 49.2 µM (inactive)
- GI50 (786-0): 46.5 µM (inactive)
- GI50 (UO-31): > 100 µM (inactive)
- GI50 (HOP-62): 39.4 µM (inactive)
- GI50 (T47D): 41.4 µM (inactive)
- GI50 (MDA-MB-231): 58.6 µM (inactive)
- GI50 (SR): 38.2 µM (inactive)
- GI50 (A498): > 100 µM (inactive)
- GI50 (SK-OV-3): > 100 µM (inactive)
- GI50 (SK-MEL-2): 30.9 µM (inactive)
- GI50 (HL-60): 35.5 µM (inactive)
- GI50 (SF-268): 64.7 µM (inactive)
- GI50 (IGROV-1): 61.5 µM (inactive)
- GI50 (SNB-75): > 100 µM (inactive)
- GI50 (OVCAR-4): 61.4 µM (inactive)
- GI50 (HOP-92): 62.5 µM (inactive)
- GI50 (KM12): 37.5 µM (inactive)
- GI50 (MOLT-4): 30.4 µM (inactive)
- GI50 (HCC 2998): 98.9 µM (inactive)
- GI50 (HCT-116): 22.4 µM (inactive)
- GI50 (TK-10): > 100 µM (inactive)
- GI50 (NCI/ADR-RES): > 100 µM (inactive)
- GI50 (SF-539): > 100 µM (inactive)
- GI50 (ACHN): 71.9 µM (inactive)
- GI50 (UACC-257): > 100 µM (inactive)
- GI50 (MCF7): 71 µM (inactive)
- GI50 (NCI-H23): 67.9 µM (inactive)
- GI50 (RPMI-8226): 34.6 µM (inactive)
- GI50 (K562): 48 µM (inactive)
- GI50 (SK-MEL-5): 35.2 µM (inactive)
- GI50 (HCT-15): > 100 µM
- GI50 (HT-29): > 100 µM (inactive)
- GI50 (SF-295): 53.1 µM (inactive)
- GI50 (NCI-H522): 97.3 µM (inactive)
- GI50 (BT-549): > 100 µM (inactive)
- GI50 (SW-620): 37.6 µM (inactive)
- GI50 (MDA-MB-435): 49.8 µM (inactive)
- GI50 (SK-MEL-28): 27.4 µM (inactive)
- GI50 (EKVX): 53.6 µM (inactive)
- GI50 (NCI-H460): 32.7 µM (inactive)
- GI50 (DU-145): > 100 µM (inactive)
- GI50 (U-251): 24.1 µM (inactive)
- GI50 (CAKI-1): 45 µM (inactive)
- GI50 (PC-3): 46.6 µM (inactive)
- GI50 (SNB-19): 72.3 µM (inactive)

Compound: COc1cccc(C(C#N)NC23CC4CC(CC(C4)C2)C3)c1 (configuration not stated)
- GI50 (A549): > 100 µM (inactive)
- GI50 (SN12C): > 100 µM (inactive)
- GI50 (Hs-578T): > 100 µM (inactive)
- GI50 (MDA-N): > 100 µM (inactive)
- GI50 (UACC-62): > 100 µM (inactive)
- GI50 (LOX IMVI): > 100 µM (inactive)
- GI50 (OVCAR-5): > 100 µM (inactive)
- GI50 (OVCAR-8): > 100 µM (inactive)
- GI50 (NCI-H226): > 100 µM (inactive)
- GI50 (RXF 393): > 100 µM (inactive)
- GI50 (COLO 205): > 100 µM (inactive)
- GI50 (CCRF-CEM): > 100 µM (inactive)
- GI50 (M14): > 100 µM (inactive)
- GI50 (OVCAR-3): > 100 µM (inactive)
- GI50 (786-0): > 100 µM (inactive)
- GI50 (UO-31): > 100 µM (inactive)
- GI50 (HOP-62): > 100 µM (inactive)
- GI50 (T47D): > 100 µM (inactive)
- GI50 (MDA-MB-231): > 100 µM (inactive)
- GI50 (SR): > 100 µM (inactive)
- GI50 (SK-OV-3): > 100 µM (inactive)
- GI50 (SK-MEL-2): > 100 µM (inactive)
- GI50 (HL-60): > 100 µM (inactive)
- GI50 (SF-268): > 100 µM (inactive)
- GI50 (IGROV-1): > 100 µM (inactive)
- GI50 (SNB-75): > 100 µM (inactive)
- GI50 (OVCAR-4): > 100 µM (inactive)
- GI50 (HOP-92): > 100 µM (inactive)
- GI50 (KM12): > 100 µM (inactive)
- GI50 (MOLT-4): > 100 µM (inactive)
- GI50 (HCC 2998): > 100 µM (inactive)
- GI50 (HCT-116): > 100 µM (inactive)
- GI50 (TK-10): > 100 µM (inactive)
- GI50 (NCI/ADR-RES): > 100 µM (inactive)
- GI50 (SF-539): > 100 µM (inactive)
- GI50 (ACHN): > 100 µM (inactive)
- GI50 (UACC-257): > 100 µM (inactive)
- GI50 (MCF7): > 100 µM (inactive)
- GI50 (NCI-H23): > 100 µM (inactive)
- GI50 (RPMI-8226): > 100 µM (inactive)
- GI50 (K562): > 100 µM (inactive)
- GI50 (SK-MEL-5): > 100 µM (inactive)
- GI50 (HCT-15): > 100 µM
- GI50 (HT-29): > 100 µM (inactive)
- GI50 (Malme-3M): > 100 µM (inactive)
- GI50 (SF-295): > 100 µM (inactive)
- GI50 (NCI-H522): > 100 µM (inactive)
- GI50 (BT-549): > 100 µM (inactive)
- GI50 (SW-620): > 100 µM (inactive)
- GI50 (MDA-MB-435): > 100 µM (inactive)
- GI50 (SK-MEL-28): > 100 µM (inactive)
- GI50 (EKVX): 85.5 µM (inactive)
- GI50 (NCI-H460): > 100 µM (inactive)
- GI50 (DU-145): > 100 µM (inactive)
- GI50 (U-251): > 100 µM (inactive)
- GI50 (CAKI-1): > 100 µM (inactive)
- GI50 (PC-3): > 100 µM (inactive)
- GI50 (SNB-19): > 100 µM (inactive)

Compound: Cn1c2ccccc2c(=NNc2ccc(S(=O)(=O)N=C(N)N)cc2)c2ccccc21
- GI50 (A549): 10 µM (inactive)
- GI50 (SN12C): 8.63 µM (inactive)
- GI50 (Hs-578T): 17.6 µM (inactive)
- GI50 (MDA-N): 12.4 µM (inactive)
- GI50 (UACC-62): 15.4 µM (inactive)
- GI50 (LOX IMVI): 5.02 µM (inactive)
- GI50 (OVCAR-5): 6.24 µM (inactive)
- GI50 (OVCAR-8): 6.03 µM (inactive)
- GI50 (NCI-H226): 4.49 µM (inactive)
- GI50 (RXF 393): 0.611 µM (active)
- GI50 (COLO 205): 5.53 µM (inactive)
- GI50 (CCRF-CEM): 6.68 µM (inactive)
- GI50 (M14): 16.3 µM (inactive)
- GI50 (OVCAR-3): 7.35 µM (inactive)
- GI50 (786-0): 5.98 µM (inactive)
- GI50 (UO-31): 4.33 µM (inactive)
- GI50 (HOP-62): 11.8 µM (inactive)
- GI50 (T47D): 6.35 µM (inactive)
- GI50 (MDA-MB-231): 11.4 µM (inactive)
- GI50 (SR): 5.01 µM (inactive)
- GI50 (SK-OV-3): 8.93 µM (inactive)
- GI50 (SK-MEL-2): 13.5 µM (inactive)
- GI50 (HL-60): 14.1 µM (inactive)
- GI50 (SF-268): 5.75 µM (inactive)
- GI50 (IGROV-1): 11.7 µM (inactive)
- GI50 (SNB-75): 12.2 µM (inactive)
- GI50 (OVCAR-4): 3.37 µM (inactive)
- GI50 (HOP-92): 12.1 µM (inactive)
- GI50 (KM12): 7.98 µM (inactive)
- GI50 (MOLT-4): 3.31 µM (inactive)
- GI50 (HCC 2998): 6.25 µM (inactive)
- GI50 (HCT-116): 5.65 µM (inactive)
- GI50 (TK-10): 7.6 µM (inactive)
- GI50 (NCI/ADR-RES): 21.8 µM (inactive)
- GI50 (SF-539): 13.8 µM (inactive)
- GI50 (ACHN): 4.55 µM (inactive)
- GI50 (UACC-257): 15.5 µM (inactive)
- GI50 (MCF7): 3.14 µM (inactive)
- GI50 (NCI-H23): 9.64 µM (inactive)
- GI50 (RPMI-8226): 7.8 µM (inactive)
- GI50 (K562): 4.39 µM (inactive)
- GI50 (SK-MEL-5): 5.41 µM (inactive)
- GI50 (HCT-15): 10.2 µM
- GI50 (HT-29): 3.8 µM (inactive)
- GI50 (Malme-3M): 8.26 µM (inactive)
- GI50 (SF-295): 13.3 µM (inactive)
- GI50 (NCI-H522): 3.82 µM (inactive)
- GI50 (BT-549): 9.42 µM (inactive)
- GI50 (SW-620): 7.55 µM (inactive)
- GI50 (MDA-MB-435): 11 µM (inactive)
- GI50 (EKVX): 5.57 µM (inactive)
- GI50 (NCI-H460): 3.37 µM (inactive)
- GI50 (DU-145): 11.2 µM (inactive)
- GI50 (U-251): 8.02 µM (inactive)
- GI50 (CAKI-1): 10.8 µM (inactive)
- GI50 (PC-3): 7.94 µM (inactive)
- GI50 (SNB-19): 10.6 µM (inactive)

Source: ChEMBL document CHEMBL1201862, “PubChem BioAssay data set” (2004)
